In brackets after ≈: the same amount, converted by molar mass. Like-named read-outs stand apart in the source and are kept apart here.
Columns and labels:
[1] = system: carbapenemase producing K. pneumoniae; test: MIC by broth micro-dilution (CLSI), carbapenemase producing K. pneumoniae; assay type: cell-based, Klebsiella pneumoniae
[2] = system: methicillin-sensitive Staphylococcus aureus; test: MIC by broth micro-dilution (CLSI), methicillin-sensitive S. aureus; assay type: cell-based; settings: MSSA S. aureus ATCC29213
[3] = system: carbapenem sensitive Pseudomonas aeruginosa; test: MIC by broth micro-dilution (CLSI), carbapenem sensitive P. aeruginosa; assay type: cell-based
[4] = system: carbapenem sensitive Escherichia coli; test: MIC by broth micro-dilution (CLSI), carbapenem sensitive E. coli; assay type: cell-based
[5] = Klebsiella pneumoniae, ATCCBAA1705, KPC-2 K. pneumoniae ATCC BAA-1705, read-out: MIC
[6] = Staphylococcus aureus, ATCC 29213 / MSSA, read-out: MIC
[7] = Pseudomonas aeruginosa, ATCC27853, Meropenem susceptible P. aeruginosa ATCC27853, read-out: MIC
[8] = Escherichia coli, ATCC25922, ESBL −ve E. coli ATCC25922, read-out: MIC
[9] = KPC-2 K. pneumoniae ATCC BAA-1705
[10] = Meropenem susceptible P. aeruginosa ATCC27853

Structure (SMILES)	MIC [1, 5] [µg/mL]	MIC [2, 6] [µg/mL]	MIC [3, 7] [µg/mL]	MIC [4, 8] [µg/mL]	MIC [1, 9] [µg/mL]	MIC [2] [µg/mL]	MIC [3, 10] [µg/mL]	MIC ([4]; ESBL −ve E. coli ATCC25922) [µg/mL]
C[C@@H](NC(=O)Cn1nnnc1C(=O)O)[C@H]1C(=O)N2C(C(=O)O)=C(S[C@@H]3CN[C@H](C(=O)N4CC[C@@H](N)C4)C3)[C@H](C)[C@H]12 [Example 403, (4R,5S,6R)-3-((3S,5S)-5-((R)-3-aminopyrrolidine-1-carbonyl)pyrrolidin-3-ylthio)-6-((R)-1-(2-(5-carboxy-1H-tetrazol-1-yl)acetamido)ethyl)-4-methyl-7-oxo-1-azabicyclo[3.2.0]hept-2-ene-2-carboxylic acid]	8 (≈ 13.8 µM)	4 (≈ 6.92 µM)	16 (≈ 27.7 µM)	0.5 (≈ 0.866 µM)				
C[C@@H](NC(=O)[C@@H]1CSCN1)[C@H]1C(=O)N2C(C(=O)O)=C(S[C@@H]3CN[C@H](C(=O)N4CC[C@@H](N)C4)C3)[C@H](C)[C@H]12 [Example 271]	4 (≈ 7.43 µM)	2 (≈ 3.71 µM)	8 (≈ 14.9 µM)	1 (≈ 1.86 µM)				
C[C@@H](NC(=O)Cn1cnnn1)[C@H]1C(=O)N2C(C(=O)O)=C(S[C@@H]3CN[C@H](C(=O)N4CCC[C@@H](N)C4)C3)[C@H](C)[C@H]12 [Example 336, (4R,5S,6R)-6-((R) - 1-(2-(1H-tetrazol-1-yl)acetamido)ethyl)-3-((3S,5S)-5-((R)-3-aminopiperidine-1-carbonyl)pyrrolidin-3-ylthio)-4-methyl-7-oxo-1-azabicyclo[3.2.0]hept-2-ene-2-carboxylic acid]	4 (≈ 7.3 µM)	4 (≈ 7.3 µM)	8 (≈ 14.6 µM)	1 (≈ 1.83 µM)				
C[C@@H](NC(=O)Cn1cnnn1)[C@H]1C(=O)N2C(C(=O)O)=C(S[C@@H]3CN[C@H](C(=O)N4CC5CCCNC5C4)C3)[C@H](C)[C@H]12 (single isomer, unassigned) [Example 459]					1 (≈ 1.74 µM)	1 (≈ 1.74 µM)	2 (≈ 3.49 µM)	0.125 (≈ 0.218 µM)
C[C@@H](NC(=O)Cn1cnnn1)[C@H]1C(=O)N2C(C(=O)O)=C(S[C@@H]3CN[C@H](C(=O)N4CCC5CNCC54)C3)[C@H](C)[C@H]12 (single isomer, unassigned) [Example 467]					2 (≈ 3.57 µM)	8 (≈ 14.3 µM)	8 (≈ 14.3 µM)	1 (≈ 1.79 µM)
C[C@@H](NC(=O)Cn1cnnn1)[C@H]1C(=O)N2C(C(=O)O)=C(S[C@@H]3CN[C@H](C(=O)N4CC5(CC(N)CO5)C4)C3)[C@H](C)[C@H]12 (single isomer, unassigned) [Example 531]					2 (≈ 3.47 µM)	4 (≈ 6.95 µM)	1 (≈ 1.74 µM)	0.125 (≈ 0.217 µM)
CNCC(=O)N[C@H](C)[C@H]1C(=O)N2C(C(=O)O)=C(S[C@@H]3CN[C@H](C(=O)N4CC[C@H](n5ncnn5)C4)C3)[C@H](C)[C@H]12 [Example 310, (4R,5S,6R)-3-((3S,5S)-5-((S)-3-(2H-tetrazol-2-yl)pyrrolidine-1-carbonyl)pyrrolidin-3-ylthio)-4-methyl-6-((R) - 1-(2-(methylamino)acetamido)ethyl)-7-oxo-1-azabicyclo[3.2.0]hept-2-ene-2-carboxylic acid]	4 (≈ 7.3 µM)	32 (≈ 58.4 µM)	64 (≈ 117 µM)	1 (≈ 1.83 µM)				
CNCc1nnc(CC(=O)N[C@H](C)[C@H]2C(=O)N3C(C(=O)O)=C(S[C@@H]4CN[C@H](C(=O)N(C)C)C4)[C@H](C)[C@H]23)o1 [Example 295]	16 (≈ 29.9 µM)	16 (≈ 29.9 µM)	64 (≈ 119 µM)	2 (≈ 3.73 µM)				
C[C@@H](NC(=O)Cn1cnnn1)[C@H]1C(=O)N2C(C(=O)O)=C(S[C@@H]3CN[C@H](C(=O)N4CC[C@@H](N)[C@H]4CO)C3)[C@H](C)[C@H]12 [Example 522, (4R,5S,6R)-6-((R)-1-(2-(1H-tetrazol-1-yl)acetamido)ethyl)-3-((3S,5S)-5-((2S,3R)-3-amino-2-(hydroxymethyl)pyrrolidine-1-carbonyl)pyrrolidin-3-ylthio)-4-methyl-7-oxo-1-azabicyclo[3.2.0]hept-2-ene-2-carboxylic acid]	2 (≈ 3.55 µM)	4 (≈ 7.1 µM)	1 (≈ 1.77 µM)	0.25 (≈ 0.444 µM)				
C[C@@H](NC(=O)Cn1ccnn1)[C@H]1C(=O)N2C(C(=O)O)=C(S[C@@H]3CN[C@H](C(=O)N(C)C)C3)[C@H](C)[C@H]12 [Example 296]	2 (≈ 4.07 µM)	4 (≈ 8.14 µM)	64 (≈ 130 µM)	0.5 (≈ 1.02 µM)				
C[C@@H](NC(=O)C(F)F)[C@H]1C(=O)N2C(C(=O)O)=C(S[C@@H]3CN[C@@H](C(=O)N(C)C)C3)[C@H](C)[C@H]12 [Example 248]	4 (≈ 8.69 µM)	1 (≈ 2.17 µM)	> 128	1 (≈ 2.17 µM)				
C[C@@H](NC(=O)Cn1nnc(C(F)(F)F)n1)[C@H]1C(=O)N2C(C(=O)O)=C(S[C@@H]3CN[C@H](C(=O)N4CC[C@@H](N)C4)C3)[C@H](C)[C@H]12 [Example 334, (4R,5S,6R)-3-((3S,5S)-5-((R)-3-aminopyrrolidine-1-carbonyl)pyrrolidin-3-ylthio)-4-methyl-7-oxo-6-((R) - 1-(2-(5-(trifluoromethyl)-2H-tetrazol-2-yl)acetamido)ethyl) - 1-azabicyclo[3.2.0]hept-2-ene-2-carboxylic acid]	32 (≈ 53.2 µM)	4 (≈ 6.65 µM)	128 (≈ 213 µM)	0.5 (≈ 0.831 µM)				

Further molecules by falling MIC [1, 5], results first:

MIC [1, 5] [µg/mL]	MIC [2, 6] [µg/mL]	MIC [3, 7] [µg/mL]	MIC [4, 8] [µg/mL]	MIC [1, 9] [µg/mL]	MIC [2] [µg/mL]	MIC [3, 10] [µg/mL]	MIC ([4]; ESBL −ve E. coli ATCC25922) [µg/mL]	Structure (SMILES)
2 (≈ 3.74 µM)	32 (≈ 59.8 µM)	32 (≈ 59.8 µM)	2 (≈ 3.74 µM)					CNCC(=O)N[C@H](C)[C@H]1C(=O)N2C(C(=O)O)=C(S[C@@H]3CN[C@H](C(=O)N4CCC5CNCCC54)C3)[C@H](C)[C@H]12 (single isomer, unassigned) [Example 490]
2 (≈ 3.55 µM)	4 (≈ 7.1 µM)	2 (≈ 3.55 µM)	0.25 (≈ 0.444 µM)					C[C@@H](NC(=O)Cn1cnnn1)[C@H]1C(=O)N2C(C(=O)O)=C(S[C@@H]3CN[C@H](C(=O)N4C[C@H](N)C[C@@H]4CO)C3)[C@H](C)[C@H]12 [Example 474, (4R,5S,6R)-6-((R)-1-(2-(1H-tetrazol-1-yl)acetamido)ethyl)-3-((3S,5S)-5-((2R,4R)-4-amino-2-(hydroxymethyl)pyrrolidine-1-carbonyl)pyrrolidin-3-ylthio)-4-methyl-7-oxo-1-azabicyclo[3.2.0]hept-2-ene-2-carboxylic acid]
2 (≈ 3.39 µM)	4 (≈ 6.78 µM)	8 (≈ 13.6 µM)	0.5 (≈ 0.848 µM)					C[C@@H](NC(=O)Cn1cnnn1)[C@H]1C(=O)N2C(C(=O)O)=C(S[C@@H]3CN[C@H](C(=O)N4CCC5CNCC54CO)C3)[C@H](C)[C@H]12 (single isomer, unassigned) [Example 561]
2 (≈ 3.55 µM)	2 (≈ 3.55 µM)	2 (≈ 3.55 µM)	0.5 (≈ 0.889 µM)					C[C@@H](NC(=O)Cn1cnnn1)[C@H]1C(=O)N2C(C(=O)O)=C(S[C@@H]3CN[C@H](C(=O)N4C[C@H](N)C[C@H]4CN)C3)[C@H](C)[C@H]12 [Example 444]
1 (≈ 1.64 µM)	4 (≈ 6.57 µM)	2 (≈ 3.29 µM)	0.25 (≈ 0.411 µM)					C[C@@H](NC(=O)Cn1cnnn1)C1C(=O)N2C(C(=O)O)=C(S[C@@H]3CN[C@H](C(=O)N4CCN(C[C@@H](F)CN)CC4)C3)[C@H](C)C12 (stereo in doubt) [Example 462, (4R,5S,6R)-6-((R)-1-(2-(1H-tetrazol-1-yl)acetamido)ethyl)-3-((3S,5S)-5-(4-((S)-3-amino-2-fluoropropyl)piperazine-1-carbonyl)pyrrolidin-3-ylthio)-4-methyl-7-oxo-1-azabicyclo[3.2.0]hept-2-ene-2-carboxylic acid]
1 (≈ 1.66 µM)	4 (≈ 6.63 µM)	2 (≈ 3.31 µM)	0.25 (≈ 0.414 µM)					C[C@@H](NC(=O)Cn1cnnn1)[C@H]1C(=O)N2C(C(=O)O)=C(S[C@@H]3CN[C@H](C(=O)N4CCC(N5CC(O)C5)CC4)C3)[C@H](C)[C@H]12 [Example 426, (4R,5S,6R)-6-((R)-1-(2-(1H-tetrazol-1-yl)acetamido)ethyl)-3-((3S,5S)-5-(4-(3-hydroxyazetidin-1-yl]piperidine-1-carbonyl)pyrrolidin-3-ylthio)-4-methyl-7-oxo-1-azabicyclo[3.2.0]hept-2-ene-2-carboxylic acid]
1 (≈ 1.65 µM)	4 (≈ 6.61 µM)	1 (≈ 1.65 µM)	0.25 (≈ 0.413 µM)					C[C@@H](NC(=O)Cn1cnnn1)[C@H]1C(=O)N2C(C(=O)O)=C(S[C@@H]3CN[C@H](C(=O)N4CCN(C(=O)CCN)CC4)C3)[C@H](C)[C@H]12 [Example 419, (4R,5S,6R)-6-((R)-1-(2-(1H-tetrazol-1-yl)acetamido)ethyl)-3-((3S,5S)-5-(4-(3-aminopropanoyl)piperazine-1-carbonyl)pyrrolidin-3-ylthio)-4-methyl-7-oxo-1-azabicyclo[3.2.0]hept-2-ene-2-carboxylic acid]
0.5 (≈ 0.962 µM)	1 (≈ 1.92 µM)	4 (≈ 7.7 µM)	0.5 (≈ 0.962 µM)					C[C@@H](NC(=O)Cn1cnnn1)[C@H]1C(=O)N2C(C(=O)O)=C(S[C@@H]3CN[C@H](CN4CC[C@@H](N)C4)C3)[C@H](C)[C@H]12 [Example 391]
0.5 (≈ 0.826 µM)	1 (≈ 1.65 µM)	0.25 (≈ 0.413 µM)	0.125 (≈ 0.206 µM)					C[C@@H](NC(=O)Cn1cnnn1)[C@H]1C(=O)N2C(C(=O)O)=C(S[C@@H]3CN[C@H](C(=O)N4C[C@@H](NC(=N)N)C[C@H]4CO)C3)[C@H](C)[C@H]12 [Example 576, (4R,5S,6R)-6-((R)-1-(2-(1H-tetrazol-1-yl)acetamido)ethyl)-3-((3S,5S)-5-((2S,4S)-4-guanidino-2-(hydroxymethyl)-pyrrolidine-1-carbonyl)pyrrolidin-3-ylthio)-4-methyl-7-oxo-1-azabicyclo[3.2.0]hept-2-ene-2-carboxylic acid]
